From patent publication US5972945A, “2-aminoalkylaminoquinolines; dopamine receptor subtype specific ligands” (Neurogen Corporation, priority 1998, dated 1999) come the findings set out here.

Where only a bound is given, the exact number is not on record here.

One assay deals with M2 Muscarinic subtype. Put plainly: M2 muscarinic subtype assay essentially as in U.S. Pat. No. 5,093,333. The class given is binding. On the procedure:
(§1) Various compounds of the invention were also evaluated in M1 and M2 Muscarinic subtype assays essentially as set forth in U.S. Pat. No. 5,093,333.

The test system of another assay is D4 receptor. The assay can be described thus: D4 receptor binding (3H-YM 09151-2 displacement). Set-up: species or system African Green monkey. The note with it: for D4: Table 2, compounds of U.S. Pat. No. 5,093,333 (Saab), parameter and unit not given; for Ki: Table 1, 0.5 nM 3H-YM 09151-2, COS cells with recombinant receptor. As for the experimental part:
(§2) Pellets of COS cells containing recombinantly produced D2 or D4 receptors from African Green monkey were used for the assays. The sample is homogenized in 100 volumes (w/vol) of 0.05 M Tris HCl buffer at 4° C. and pH 7.4. The sample is then centrifuged at 30,000×g and resuspended and rehomogenized. The sample is then centrifuged as described and the final tissue sample is frozen until use. The tissue is resuspended 1:20 (wt/vol) in 0.05 M Tris HCl buffer containing 100 mM NaCl.
(§3) Incubations are carried out at […] and contain 0.4 ml of tissue sample, 0.5 nM ^3 H-YM 09151-2 and the compound of interest in a total incubation of 1.0 ml. Nonspecific binding is defined as that binding found in the presence of […]; without further additions nonspecific binding is less than 20% of total binding. Binding characteristics of various compounds of the invention for D2 and D4 receptor subtypes are shown in Table 1 for […].

The test system of another assay is M1 Muscarinic subtype. The assay can be described thus: M1 muscarinic subtype assay essentially as in U.S. Pat. No. 5,093,333. The class given is binding. As for the experimental part:
as §1

The target of another assay is T1, D2 receptor (Chlorocebus aethiops, UniProt P52702).
T1 construct: expressed in transfected cells; host or cells: COS cells
T1 sequence (P52702 whole entry): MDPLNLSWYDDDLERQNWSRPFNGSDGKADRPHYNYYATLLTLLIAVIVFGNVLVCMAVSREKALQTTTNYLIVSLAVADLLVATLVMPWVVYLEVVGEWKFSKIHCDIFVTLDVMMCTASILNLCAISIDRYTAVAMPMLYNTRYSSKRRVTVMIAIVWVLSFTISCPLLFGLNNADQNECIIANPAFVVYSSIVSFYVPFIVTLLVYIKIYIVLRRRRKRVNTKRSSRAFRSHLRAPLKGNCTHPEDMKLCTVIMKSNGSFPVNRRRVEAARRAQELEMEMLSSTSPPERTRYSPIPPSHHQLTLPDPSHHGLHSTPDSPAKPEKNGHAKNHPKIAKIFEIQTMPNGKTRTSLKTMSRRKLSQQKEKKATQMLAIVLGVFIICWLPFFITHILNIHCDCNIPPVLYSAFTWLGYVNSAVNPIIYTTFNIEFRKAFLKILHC
Put plainly: D2 receptor binding (3H-YM 09151-2 displacement). Also noted: species or system African Green monkey. The note with it: Table 1; 0.5 nM 3H-YM 09151-2, COS cells with recombinant receptor. On the procedure:
as §2, §3

Where [1] appears, read: Table 2, compounds of U.S. Pat. No. 5,093,333 (Saab), parameter and unit not given.

For the compound `Cc1cc(NCCCN2CCOCC2)nc2ccccc12`, in the assay with M2 Muscarinic subtype (setting [1]), the M2 is given as 2500. This compound also displayed a D4 in the assay on D4 receptor greater than 1000. For the same compound, in the assay on M1 Muscarinic subtype (setting [1]), the M1 is listed as 1200.

`c1ccc(N2CCN(CCNC3=Nc4ccccc4CC3)CC2)nc1` [Compound 2, 2-3,4-dihdroquinolyl(2-(4-(2-pyridyl)piperazinyl)ethyl)amine]: the Ki (in general, the dissociation constant of the complex between target and ligand, obtained from inhibition or displacement) at D4 receptor is 30 nM.

As to `Fc1cnc(N2CCN(CCNC3=Nc4ccccc4CC3)CC2)nc1` [Compound 3, 2-3,4-dihydroquinoly(2-(4-(5-fluoropyrimidin-2-yl)piperazinyl)ethyl)amine], the “M2” value in the assay on M2 Muscarinic subtype (Table 1, parameter not stated) turned out to be 144 nM. For the same compound, the Ki on D4 receptor was determined as 8 nM. Further, the “M1” value in the assay on M1 Muscarinic subtype (Table 1, parameter not stated) came to 128 nM.

As to `Cc1cccc(N2CCN(CCCNc3ccc4ccccc4n3)CC2)c1C` [Compound 21, (3-(4-(2,3-dimethylphenyl)piperazinyl)propyl)2-quinolylamine], the Ki on D2 receptor is greater than 100 nM; on D4 receptor it was 22 nM.

As to `Cc1cc(NCCCN2CCN(c3ncccn3)CC2)nc2ccccc12` [Compound 22, (4-methyl(2-quinolyl))(3-(4-(pyrimidin-2-yl)piperazinyl)propyl)amine], the Ki on D2 receptor amounted to 3300 nM; at D4 receptor, 10 nM.

In the assay on M2 Muscarinic subtype (setting [1]), `c1ccc2nc(NCCCN3CCOCC3)ccc2c1` [Saab Example 2] yielded an M2 of 11600. The compound also yielded a D4 with D4 receptor greater than 1000. Besides, the M1 with M1 Muscarinic subtype (setting [1]) was 2500.

`Cc1cc(NCCCN2CCN(C)CC2)nc2ccccc12` [Saab Example 3] gave an M2 in the assay on M2 Muscarinic subtype (setting [1]) of 2800. In addition, in the assay on D4 receptor, the D4 is reported as greater than 1000. In the assay with M1 Muscarinic subtype (setting [1]), this compound gave an M1 of 600.

Consider `Cc1cc(NCCCN2CCCC2=O)nc2ccccc12` [Saab Example 7], for which the M2 with M2 Muscarinic subtype (setting [1]) worked out at 20000. This compound came in with a D4 with D4 receptor greater than 1000. The compound further registered an M1 in the assay on M1 Muscarinic subtype (setting [1]) of 1300.
